Results reported in patent US8765802B2, “Kinase inhibitors, compositions thereof, and methods of use therewith” (Provid Pharmaceuticals, Inc., priority 2007, dated 2014).

How the values were obtained:
[1] = molecular target: T1, Chk2 (Homo sapiens, UniProt O96017); experiment: Chk2 inhibitor IMAP assay (high-throughput Chk2 screening assay); type: biochemical; settings: IMAP fluorescence polarization assay, 10 μM ATP
T1 construct: made in house; host or cells: E. coli BL21 Star (Invitrogen)
Experimental: Compounds set forth in Table 1 were tested in the Chk2 inhibitor IMAP assay described herein in Example 6.84. […] The letters given for the Chk2 EC50 values in Table 1 represent the following ranges: A=<100 nM; B=100-300 nM; C=300-1000 nM; D=1-10 μM; and E>10 μM.
Compounds can be screened for Chk2 inhibitory activity using a high-throughput screening assay based in the immobilized metal ion affinity-based fluorescence polarization (IMAP) assay developed by Molecular Devices. This assay is based on the high affinity binding of phosphate by immobilized metal (MIII) coordination complexes on nanoparticles. A fluorescein-labeled peptide substrate is used as the substrate for the kinase activity of Chk2 in the assay. The IMAP binding reagent stops the kinase reaction. The binding of the binding reagent results in a change in the rate of molecular motion of the peptide and causes an increase in the fluorescence polarization value observed for the fluorescein label attached to the end of the peptide. Thus, inhibition of Chk2 would result in a decrease in fluorescence polarization compared to control.
A specific protocol for screening Compounds for Chk2 inhibitory activity follows.
A Compound is supplied at 1 mM in 0.5 μl DMSO on 384 well plates (such as Greiner or Corning). After thawing, 5 μl DMSO is added to the drug plate. The drug plate is then incubated for 10 minutes to solubilize the Compound. An additional 19.5 μl of reaction buffer (10× stock prepared using 100 mM Tris-HCl, 100 mM MgCl2, 1% BSA, pH 7.2, stored at 4° C.)+1 mM DDT is added to bring the Compound to 4× final concentration. A positive control is also prepared at 4× final concentration. The following control wells are used: less enzyme control (all reagents except enzyme; 5 μl/well), less Compound control (all reagents except Compound; 5 μl/well), positive control (all reagents plus staurosporine at a final concentration of 5 μM; 5 μl/well).
Reagents are then added in the following order to give the following final concentration: 2.5 μl ATP/Chk2tide (Molecular Devices) (10 μM/100 nM final concentration), 1.25 μl Compound (5 μM final concentration inf 5.5% DMSO), and 1.25 μl Chk2 (1:500, 2.4 μg/mL final concentration).
Plates are covered and incubated at room temperature for 60 minutes.
IMAP binding reagent (Molecular Devices) is diluted 1:400 into binding buffer (Molecular Devices). 15 μl of this solution is then added to all wells and the plates are covered and incubated for 30 minutes.
Plates are read using a Tecan Ultra under the fluorescence polarization mode. Gain is set to the less enzyme and less Compound wells for each plate. Excitation 485 nm, emmission 535 nm, Z position 12519 and flashes 5 are used as settings. Raw data from the Tecan reader is imported into an access database for analysis.

[2] = tested on: HDMX in MCF7 cells; experiment: HDMX degradation in MCF7 cells following DNA damage (Western blot); type: cell-based; settings: varying concentrations 2.5 h, then 1 μM topotecan 4 h or 10 Gy IR + 4 h
Experimental: FIG. 2. […] MCF7 cells were treated in the absence (control) or presence of compound 18 at varying concentrations for 2.5 hours. The cells were then exposed to either 1 μM topotecan (TPT) for 4 hours or they were exposed to 10 Gy IR and incubated for 4 hours. Whole cell extracts were made and Western blotting was performed to detect HDMX. The levels of HDMX were quantified from the blots and normalized to actin. The normalized levels of HDMX are depicted as bar graphs under the blots.

[3] = tested on: mouse thymocytes; experiment: IR-induced apoptosis in mouse thymocytes (PI staining, FACS); type: cell-based; settings: thymocytes from Chk2+/+ or Chk2-/- mice, 1 μM for 1 h, 5 Gy IR, 16 h
Experimental: FIG. 3. […] Thymocytes were isolated from Chk2+/+ or Chk2−/− mice by mechanical disaggregation. The isolated thymocytes were treated in the absence or presence of 1 μM compound 18 or ref^λ (J. Wu et al, Bioorganic and Medicinal Chemistry letters, 2007, 17(1), 172, [N-isobutyl analog of compound 7]) for 1 hour. The cells were then exposed to 5 Gy IR and incubated for 16 hours. The cells were then washed in PBS and fixed in ethanol. Propidium isodide (PI) was added in the presence of RNAse A before being subjected to flow cytometry. The graphs show FACS analysis of the PI stained cells.

[4] = tested on: OVCAR-4 cells; experiment: Combination with camptothecin in OVCAR-4 cells (MTS growth inhibition); type: cell-based, human; settings: 48 h, MTS staining, 40 combinations
Experimental: FIG. 4. Compound 18 is synergistic with camptothecin (CPT) in OVCAR-4 cells. OVCAR-4 cells were treated with either compound 18 or CPT as single agents in 96 well tissue culture plates. In addition, the cells were exposed to 40 combinations of compound 18 and CPT. The drug treatments were for 48 hours and the cells were then subjected to MTS staining to determine the growth inhibitory effect. The graph represents a 3-dimensional plot of the MTS data obtained. The upper, light gray surface represents a theoretical surface of additivity that was generated from dose response curves of compound 18 alone and CPT alone. The lower, dark grey surface depicts the surface of the combination of compound 18 and CPT that was generated from data obtained in the MTS assay (shown by the blue circles). Data points lying under the green additivity surface are deemed to synergistic combinations. The bar graph on the right is a 2-dimensional representation of 1 combination of 11 μM compound 18 and 6.25 μM CPT taken from the 3-D model.

T1 sequence (O96017 whole entry): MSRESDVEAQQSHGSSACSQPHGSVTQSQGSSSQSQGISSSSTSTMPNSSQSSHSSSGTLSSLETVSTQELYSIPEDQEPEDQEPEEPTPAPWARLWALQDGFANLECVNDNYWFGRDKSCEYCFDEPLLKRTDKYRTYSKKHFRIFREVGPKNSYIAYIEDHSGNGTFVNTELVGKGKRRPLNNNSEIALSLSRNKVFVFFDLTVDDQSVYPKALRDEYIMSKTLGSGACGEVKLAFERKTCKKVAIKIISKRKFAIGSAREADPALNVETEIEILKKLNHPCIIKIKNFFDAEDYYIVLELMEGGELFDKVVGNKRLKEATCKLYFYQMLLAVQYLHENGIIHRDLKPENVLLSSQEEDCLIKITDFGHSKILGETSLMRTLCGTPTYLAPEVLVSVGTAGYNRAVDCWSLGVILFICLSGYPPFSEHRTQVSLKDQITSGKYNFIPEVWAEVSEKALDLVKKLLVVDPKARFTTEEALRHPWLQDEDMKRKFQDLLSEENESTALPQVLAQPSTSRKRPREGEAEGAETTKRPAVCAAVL

EC50 [1]: < 100 nM
Structure (SMILES): C/C(=N\NC(=N)N)c1ccc(NC(=O)c2cc3cccc([N+](=O)[O-])c3[nH]2)cc1 [Compound 18]
Effect on HDMX degradation following DNA damage [2]: Abrogation of HDMX degradation
Effect on IR-induced apoptosis [3]: abrogation of IR-induced apoptosis
Combination effect with camptothecin (CPT) [4]: synergistic
